Assay results taken from patent publication US11905244B2, “Chemical modulators of store-operated calcium channels and their therapeutic applications” (The Texas A&M University System, priority 2017, dated 2024).

Each compound was assayed against CRAC channel (Homo sapiens (Human), UniProt Q96D31) (assay: GFP-NFAT translocation-based high-content screening (TG-stimulated HeLa cells stably expressing GFP-NFAT)). Settings: 200 μM compound.
CRAC channel, sequence (Q96D31 whole entry): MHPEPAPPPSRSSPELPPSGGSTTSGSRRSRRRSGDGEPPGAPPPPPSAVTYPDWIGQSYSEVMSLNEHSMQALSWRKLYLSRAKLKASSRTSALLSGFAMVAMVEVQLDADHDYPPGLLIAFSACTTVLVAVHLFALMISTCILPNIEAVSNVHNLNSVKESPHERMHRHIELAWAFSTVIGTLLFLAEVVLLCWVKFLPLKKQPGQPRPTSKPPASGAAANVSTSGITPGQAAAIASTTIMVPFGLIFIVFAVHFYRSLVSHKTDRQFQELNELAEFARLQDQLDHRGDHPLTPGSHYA
Format: cell-based
Source text: It is known that thapsigargin (TG) can induce the CRAC channel to open resulting in the calcium influx. The elevation of calcium in cytoplasm can activate the Ca^2+-calcineurin-NFAT pathway followed by NFAT translocation from the cytoplasm to the nucleus to regulate gene transcription. Therefore, the inventors built a GFP-NFAT translocation-based high-content screening method to evaluate the activity of compounds on CRAC channel. Briefly, a HeLa cell line stably expressing GFP-NFAT was established and used, and the images after chemical stimulation in the presence of TG were acquired using an IN Cell Analyzer 6000 confocal laser imaging system, and then the GFP fluorescent intensity ratio between cytoplasm and nucleus was analyzed to reflect the inhibitory activity of compound on CRAC channel.
Briefly, GFP-NFAT stable cells were cultured in Dulbecco's modified eagle's medium (DMEM) supplemented with 10% FBS in 5% carbon dioxide at 37° C. When it reached 90% confluency, a cell suspension with a concentration of […] was prepared, and an amount of 2000 cells per well (25 μL/well) was seeded in 384 well plate, putting it at the room temperature for 1 h to make sure the cells distribute evenly, then the cells were incubated overnight. First, primary screening of the selected compounds was conducted. A series of compound solutions with a concentration of 200 μM in MEDM medium were prepared in a 96 well plate and then added to a 384 well plate using a Beckman Coulter automatic drug adding system, in 4 duplicates, and incubated for 30 min at 37° C. SKF was selected as the positive control. Then, 1 μM TG and 1 mM Ca^2+ were added to 384-well plate using Beckman Coulter automatic drug adding system and incubated for 20 min. Subsequently, 384 well plate was gently washed with PBS twice, and the cells were fixed with 4% PFA (25 μl per well) for 10˜15 mins at room temperature, then washed with PBS gently, added 0.5% Triton X-100 (25 μL per well), and incubated for 5 mins aFt room temperature, stained with DAPI (1 μg/mL) for 5˜10 mins at room temperature, washed with PBS and added 30 μL PBS per well to image on confocal laser imaging system (objective lens: 10×, FITC and UV). Using Pipeline Plot software (NAFT translocation protocol), the intensity of green fluorescence was analyzed in nucleus and cytosol, calculate the ratio of nucleus:cytosol, normalize TG stimulate NFAT translocation as 1 and no TG adding as 0. Finally, the data was analyzed using GraphPad Prism 5 software.
With CCN/C(=N\c1cccc(C(F)(F)F)c1)S[C@H]1CC(=O)N(c2ccc(C(=O)O)cc2)C1=O [Compound 03] the “Inhibitory activity on CRAC channel in primary screening (NFAT nucleus-to-cytosol ratio)” value was “good activity”.
In the case of CCN/C(=N/c1ccc(C)c(Cl)c1)SC1CC(=O)N(c2ccc(C(=O)OC)cc2)C1=O (centres unmarked) [Compound 62], the “Inhibitory activity on CRAC channel in primary screening (NFAT nucleus-to-cytosol ratio)” value is reported as “good inhibition”.

Same assay, conditions: GFP-NFAT translocation assay; read-out: IC50 on CRAC channel
CCN/C(=N\c1cccc(C(F)(F)F)c1)S[C@H]1CC(=O)N(c2ccc(C(=O)O)cc2)C1=O [Compound 03] showed an IC50 of roughly 100 µM.

Same assay, conditions: Table 1, hits from virtual screening; unit inferred; read-out: IC50 Value
Compound CCN/C(=N\c1cccc(C(F)(F)F)c1)S[C@H]1CC(=O)N(c2ccc(C(=O)O)cc2)C1=O [Compound 03] has an IC50 of 144 µM.
Cc1cc(C)c(S(=O)(=O)Nc2ccc(O)c(C(=O)O)c2)c(C)c1 [Compound 06] was tested, and the IC50 was greater than 200 µM.
Cc1ccc(Oc2ccc3c(c2)C(=O)N(CC(=O)O)C3=O)cc1 [Compound 07] was tested, and the IC50 was greater than 200 µM.
In the case of O=C(CSCc1c(Cl)cccc1Cl)Nc1ccc(C(=O)O)cc1 [Compound 09], the IC50 is reported as greater than 200 µM.
Work on Cc1cc(=O)n2c3c(cc(S(=O)(=O)NCc4ccc(C(=O)O)cc4)cc13)CC2 [Compound 12] yielded an IC50 greater than 200 µM.
Compound O=C(CCCc1nc(-c2ccccc2)no1)Nc1ccc(C(=O)O)cc1 [Compound 13] has an IC50 greater than 200 µM.
In the case of O=C(O)c1ccc(-c2ccc(CNC3CCCCC3)o2)cc1 [Compound 14], the IC50 is reported as greater than 200 µM.
Compound Cc1cccc(C)c1OCC(=O)NCc1ccc(C(=O)O)cc1 [Compound 17] has an IC50 greater than 200 µM.
O=C(O)c1ccc(NC(=O)C2CC(=O)N(c3ccc(Cl)cc3)C2)cc1 (centres unmarked) [Compound 18] gave an IC50 greater than 200 µM.
Work on CCOc1cc(Cl)c(S(=O)(=O)N2CCC(C(=O)O)CC2)cc1Cl [Compound 19] yielded an IC50 greater than 200 µM.
CC(SC1N=C(c2ccccc2)C(c2ccccc2)=N1)C(=O)O (centres unmarked) [Compound 22] gave an IC50 greater than 200 µM.
With CCc1ccc(C=C(C(=O)O)C(=O)O)s1 [Compound 23] the IC50 was greater than 200 µM.
O=C(O)c1ccc(N2C(=O)c3cccc4cc(Br)cc(c34)C2=O)cc1 [Compound 24] gave an IC50 greater than 200 µM.
In the case of C=CC[C@H]1N(c2ccccc2Cl)C[C@H]2[C@H](C(=O)O)[C@@H]3C=C[C@@]21O3 [Compound 25], the IC50 is reported as greater than 200 µM.
Work on CC(=C\C(=O)O)/C(=C/c1ccc(C)o1)C(=O)O [Compound 27] yielded an IC50 greater than 200 µM.
Compound Nc1c(S(=O)(=O)O)ccc2c1C(=O)c1ccccc1C2=O [Compound 28] has an IC50 greater than 200 µM.
Cc1nn([C@H](CC(=O)O)C(=O)O)c(C)c1I [Compound 29] gave an IC50 greater than 200 µM.
CCN/C(=N\c1ccc(Cl)c(Cl)c1)S[C@H]1CC(=O)N(c2ccc(C(=O)O)cc2)C1=O [Compound 30] gave an IC50 greater than 200 µM.
Work on Cc1cc2nc(S(=O)(=O)O)n(C)c2cc1C [Compound 31] yielded an IC50 greater than 200 µM.
Work on Cc1c(C(=O)O)nnn1-c1ccc(Br)cc1 [Compound 32] yielded an IC50 greater than 200 µM.
For O=C(O)c1ccc(C(=O)Nc2ccc(Br)cc2)c(C(=O)O)c1 [Compound 33], the IC50 was greater than 200 µM.
With COc1ccc(-c2occ(C(=O)O)c2C(=O)O)cc1 [Compound 34] the IC50 was greater than 200 µM.
O=C(O)c1ccc2c(c1)[C@@H](Cl)Cc1ccccc1S2 [Compound 35] was tested, and the IC50 was greater than 200 µM.
Compound O=C1CCC(=O)N1c1ccc(S(=O)(=O)O)cc1 [Compound 36] has an IC50 greater than 200 µM.
Compound O=C(O)CN1C(=O)[C@@H]2[C@@H](C1=O)[C@H]1C=C[C@@H]2C1 [Compound 37] has an IC50 greater than 200 µM.
Work on Cc1nn(-c2ccc([N+](=O)[O-])cc2)c(Cl)c1S(=O)(=O)O [Compound 38] yielded an IC50 greater than 200 µM.
O=C(O)[C@H]1CC(=O)N(c2ccc(I)cc2)C1 [Compound 39] showed an IC50 greater than 200 µM.
C#CCOc1ccc2ccccc2c1/C=C1\SC(Nc2cccc(C(=O)O)c2)=NC1=O [Compound 40] gave an IC50 greater than 200 µM.
For Cc1ccc(N2C(=O)c3ccc(C(=O)O)cc3C2=O)cc1Cl [Compound 42], the IC50 was greater than 200 µM.
Cc1cc(C)n(-c2ccc(S(=O)(=O)O)cc2)n1 [Compound 43] gave an IC50 greater than 200 µM.
Work on O=C(O)CCC(=O)Nc1ccc(OCCc2ccccc2)cc1 [Compound 44] yielded an IC50 greater than 200 µM.
Cc1ccc(S(=O)(=O)Nc2ccc(O)c(C(=O)O)c2)c(C)c1 [Compound 46] showed an IC50 greater than 200 µM.
With O=C(O)c1ccc(NC(=O)[C@H]2CC(=O)N(c3ccc(Cl)cc3)C2)cc1 [Compound 47] the IC50 was greater than 200 µM.
Nc1nc(C(=O)O)nn1C12CC3CC(CC(C3)C1)C2 [Compound 48] gave an IC50 greater than 200 µM.
Compound CN(C)c1ccc(CNCc2ccc(C(=O)O)cc2)cc1 [Compound 49] has an IC50 greater than 200 µM.
Compound Cc1ccc(Oc2ccc(N3C[C@H](C(=O)O)CC3=O)cc2)cc1C [Compound 50] has an IC50 greater than 200 µM.
Work on O=c1[nH]nnc2c1C1=C(CCCC1)C2 [Compound 51] yielded an IC50 greater than 200 µM.

Same assay, conditions: Table 1; compound marked as agonist; unit inferred; read-out: IC50 Value (agonist)
In the case of CN1C(=O)C(Cc2ccc(O)c(Cl)c2)S/C1=N\c1cccc(C(=O)O)c1 (centres unmarked) [Compound 21], the IC50 is reported as 60.3 µM.

Same assay, conditions: Table 2; unit inferred; read-out: IC50 of the compounds (inhibitory activity on CRAC channel)
O=C(O)c1ccc(N2C(=O)CC(S/C(=N\c3ccccc3)Nc3ccccc3)C2=O)cc1 (centres unmarked) [Compound 52] gave an IC50 greater than 200 µM.
Work on CN/C(=N/c1ccc(F)cc1)SC1CC(=O)N(c2ccc(C(=O)O)cc2)C1=O (centres unmarked) [Compound 54] yielded an IC50 greater than 200 µM.
CCN/C(=N/c1ccc(C(F)(F)F)cc1)SC1CC(=O)N(c2ccc(C(=O)O)cc2)C1=O (centres unmarked) [Compound 55] showed an IC50 greater than 200 µM.
CN/C(=N/c1cc(Cl)ccc1Cl)SC1CC(=O)N(c2ccc(C(=O)O)cc2)C1=O (centres unmarked) [Compound 56] gave an IC50 greater than 200 µM.
For CCOC(=O)c1ccc(N2C(=O)CC(SCc3nnnn3-c3ccccc3)C2=O)cc1 (centres unmarked) [Compound 57], the IC50 was greater than 200 µM.
COC(=O)c1ccc(N2C(=O)CC(S/C(=N\c3ccccc3)NCc3ccc4c(c3)OCO4)C2=O)cc1 (centres unmarked) [Compound 58] was tested, and the IC50 was greater than 200 µM.
Work on CN/C(=N/c1ccc(I)cc1)SC1CC(=O)N(c2ccc(C(=O)O)cc2)C1=O (centres unmarked) [Compound 59] yielded an IC50 greater than 200 µM.
CN/C(=N/c1ccc(C)c(Cl)c1)SC1CC(=O)N(c2ccc(C(=O)O)cc2)C1=O (centres unmarked) [Compound 60] gave an IC50 greater than 200 µM.
For CCN/C(=N/c1ccccc1)SC1CC(=O)N(c2ccc(C(=O)O)cc2)C1=O (centres unmarked) [Compound 61], the IC50 was greater than 200 µM.
In the case of CCN/C(=N/c1ccc(C)c(Cl)c1)SC1CC(=O)N(c2ccc(C(=O)OC)cc2)C1=O (centres unmarked) [Compound 62], the IC50 is reported as 11.3 µM.
Compound CN/C(=N/c1ccccc1OC)SC1CC(=O)N(c2ccc(C(=O)OC)cc2)C1=O (centres unmarked) [Compound 63] has an IC50 of 74.4 µM.
CN/C(=N/c1ccccc1)SC1CC(=O)N(c2ccc(C(=O)OC)cc2)C1=O (centres unmarked) [Compound 64] gave an IC50 of 24.9 µM.
For COC(=O)c1ccc(N2C(=O)CC(S/C(=N\c3cccc(C(F)(F)F)c3)NCCc3ccc(OC)c(OC)c3)C2=O)cc1 (centres unmarked) [Compound 67], the IC50 was greater than 200 µM.
In the case of COC(=O)c1ccc(N2C(=O)CC(S/C(=N\c3ccc(Cl)cc3)NCc3ccccc3)C2=O)cc1 (centres unmarked) [Compound 68], the IC50 is reported as greater than 200 µM.
Work on CN/C(=N/c1cc(Cl)cc(Cl)c1)SC1CC(=O)N(c2ccc(C(=O)O)cc2)C1=O (centres unmarked) [Compound 69] yielded an IC50 of 108 µM.
CN/C(=N/c1cccc(F)c1)SC1CC(=O)N(c2ccc(C(=O)O)cc2)C1=O (centres unmarked) [Compound 70] showed an IC50 greater than 200 µM.
CN/C(=N/c1cccc(OC)c1)SC1CC(=O)N(c2ccc(C(=O)O)cc2)C1=O (centres unmarked) [Compound 71] showed an IC50 greater than 200 µM.
CCN/C(=N/c1cccc(OC)c1)SC1CC(=O)N(c2ccc(C(=O)O)cc2)C1=O (centres unmarked) [Compound 72] was tested, and the IC50 was greater than 200 µM.
Compound CCN/C(=N/c1cccc(F)c1)SC1CC(=O)N(c2ccc(C(=O)O)cc2)C1=O (centres unmarked) [Compound 73] has an IC50 greater than 200 µM.
Work on COc1ccc(CN/C(=N/c2ccc(Cl)cc2)SC2CC(=O)N(c3ccc(C(=O)O)cc3)C2=O)cc1 (centres unmarked) [Compound 74] yielded an IC50 greater than 200 µM.
CN/C(=N/c1ccccc1)SC1CC(=O)N(c2ccc(C(=O)OC)cc2)C1=O (centres unmarked) [Compound 75] gave an IC50 greater than 200 µM.
With CCN/C(=N\c1ccccc1)SC1CC(=O)N(c2ccc(C(=O)OC)cc2)C1=O (centres unmarked) [Compound 76] the IC50 was greater than 200 µM.
In the case of CCCN/C(=N\c1ccccc1)SC1CC(=O)N(c2ccc(C(=O)OC)cc2)C1=O (centres unmarked) [Compound 77], the IC50 is reported as greater than 200 µM.
With CCCCN/C(=N\c1ccccc1)SC1CC(=O)N(c2ccc(C(=O)OC)cc2)C1=O (centres unmarked) [Compound 78] the IC50 was greater than 200 µM.
